How the values were obtained:
[1] = Stability of mini-tablets (Series 1-8) compared to an amoxicillin reference sample as a function of time; assay type: physicochemical
Method: (§1) The 8 mini-tablets prepared in Example 1 and an amoxicillin reference sample were analyzed for stability. Stability data for clavulanic acid in mini-tablets compared to a clavulanic acid reference sample were also analyzed for stability.

[2] = Stability of mini-tablets containing clavulanic acid compared to a clavulanic acid reference sample as a function of time; assay type: physicochemical
Method: as §1

Stability (amoxicillin) as a function of time ([1]; 0 weeks) | Stability (amoxicillin) as a function of time ([1]; 1 week) | Stability (amoxicillin) as a function of time ([1]; 49 weeks) | Stability (clavulanic acid) as a function of time ([2]; 0 weeks) | Stability (clavulanic acid) as a function of time ([2]; 1 week) | Stability (clavulanic acid) as a function of time ([2]; 26 weeks) | Compound
100.0 | 100.0 | 97.8 |  |  |  | CC1(C)S[C@@H]2[C@H](NC(=O)[C@H](N)c3ccc(O)cc3)C(=O)N2[C@H]1C(=O)O [Amoxicillin reference, Amoxicillin]
 |  |  | 100% | 86.4% | 88.4% | O=C(O)[C@H]1/C(=C/CO)O[C@@H]2CC(=O)N21 [Clavulanic acid reference, Clavulanic acid]

— patent US20150238425A1, “MINI-TABLETS” (DSM SINOCHEM PHARMACEUTICALS NETHERLANDS B.V., priority 2012, published 2015)
